According to paper PMC4641920, “Structural Determinants for Substrate Binding and Catalysis in Triphosphate Tunnel Metalloenzymes” (The Journal of Biological Chemistry, 2015):

What was measured:
mouse ThTPase [1] = target: T1, mouse ThTPase (Mus musculus, UniProt Q8JZL3); assay: X-ray crystal structure of complex (soak); type: binding; details: 10 mM MgCl2; low pH where activity is minimal (text: pH 6; methods: buffer pH 6.8); tunnel active site
T1 construct: gene Thtpa; full-length, codon-optimized synthetic gene; pMH-HT, His6 tag cleaved by TEV as for AtTTM3; expressed in E. coli
T1 sequence (Q8JZL3 1-224): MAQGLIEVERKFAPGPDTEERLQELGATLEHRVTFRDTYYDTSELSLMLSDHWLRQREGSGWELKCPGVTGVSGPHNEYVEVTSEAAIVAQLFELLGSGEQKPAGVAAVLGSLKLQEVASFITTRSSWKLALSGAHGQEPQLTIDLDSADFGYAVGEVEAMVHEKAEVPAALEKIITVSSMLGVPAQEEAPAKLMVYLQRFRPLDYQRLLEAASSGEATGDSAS

ygiF = target: T2, ygiF (Escherichia coli, UniProt P30871); assay: X-ray crystal structure of complex (soak); type: binding; details: MgCl2 (5a60) or MnCl2 (5a61), 5 mM; tunnel active site
T2 construct: full-length, tunnel domain plus CHAD domain; pMH-HT, His6 tag cleaved by TEV as for AtTTM3; expressed in E. coli
T2 sequence (P30871 whole entry, the tested form may be a part): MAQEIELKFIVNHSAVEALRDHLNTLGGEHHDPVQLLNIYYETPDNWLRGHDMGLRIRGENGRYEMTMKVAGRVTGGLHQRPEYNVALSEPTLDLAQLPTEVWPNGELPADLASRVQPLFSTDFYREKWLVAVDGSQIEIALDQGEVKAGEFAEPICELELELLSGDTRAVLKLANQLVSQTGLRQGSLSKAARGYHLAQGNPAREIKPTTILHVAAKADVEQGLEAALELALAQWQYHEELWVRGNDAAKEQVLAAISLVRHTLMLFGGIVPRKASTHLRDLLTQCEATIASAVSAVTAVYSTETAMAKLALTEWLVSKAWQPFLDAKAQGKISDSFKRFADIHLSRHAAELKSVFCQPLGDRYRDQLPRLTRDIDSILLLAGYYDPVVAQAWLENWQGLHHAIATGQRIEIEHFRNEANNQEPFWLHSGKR

mouse ThTPase [2] = target: T1, mouse ThTPase; assay: X-ray crystal structure of product complex (soak); type: binding; details: pH 9.0, 0.2 M MgCl2 in crystallization buffer
Vtc4p = target: T3, Vtc4p (Saccharomyces cerevisiae, UniProt P47075); assay: polyP synthesis, urea PAGE with DAPI stain; type: biochemical; details: 10 mM ATP, 1 mM MnCl2, pH 8.3, room temperature overnight
T3 construct: gene VTC4; probably the cytoplasmic tunnel domain of earlier work
T3 sequence (P47075 189-480 limits assumed): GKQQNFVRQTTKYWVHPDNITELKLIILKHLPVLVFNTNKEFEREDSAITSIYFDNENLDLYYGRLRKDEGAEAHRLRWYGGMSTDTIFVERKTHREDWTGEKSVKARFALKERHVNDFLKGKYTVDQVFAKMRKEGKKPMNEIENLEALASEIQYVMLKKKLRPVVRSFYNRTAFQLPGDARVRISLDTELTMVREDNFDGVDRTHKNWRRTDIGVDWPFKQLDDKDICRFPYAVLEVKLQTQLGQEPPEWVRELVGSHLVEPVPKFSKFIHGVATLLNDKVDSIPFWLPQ

## Cc1ncc(C[n+]2csc(CCOP(=O)(O)OP(=O)(O)OP(=O)(O)O)c2C)c(N)n1 [thiamine triphosphate]
Mouse ThTPase [1]
  X-ray crystal structure of complex (soak): we found an intact ThTP molecule bound in the tunnel center of ThTPase

## O=P(O)(O)OP(=O)(O)OP(=O)(O)O [tripolyphosphate]
ygiF
  X-ray crystal structure of complex (soak): solved structures of ygiF in complex with PPPi and in the presence of either MgCl2

## O=P(O)(O)O [orthophosphate]
Mouse ThTPase [2]; bound by Arg-125 near metal site 2, with ThDP
  X-ray crystal structure of product complex (soak): with a ThDP molecule and an orthophosphate located in the tunnel center

## Cc1ncc(C[n+]2csc(CCOP(=O)(O)OP(=O)(O)O)c2C)c(N)n1 [ThDP]
Mouse ThTPase [2]; tunnel active site, Pi also bound
  X-ray crystal structure of product complex (soak): with a ThDP molecule and an orthophosphate located in the tunnel center

## Nc1ncnc2c1ncn2[C@@H]1O[C@H](COP(=O)(O)OP(=O)(O)OP(=O)(O)O)[C@@H](O)[C@H]1O [ATP]
Vtc4p
  polyP synthesis, urea PAGE with DAPI stain: only Vtc4p can generate inorganic polyphosphate from ATP
